Common to all, as to assay: NCI anticancer screen, dose series, 48 h
In assay [1] the test system is HT29 colon.
Assay [2] deals with HOP-18 NSCLC.
The subject of assay [3] is HL-60(TB) leukemia.
The subject of assay [4] is SF-295 CNS.
Assay [5] concerns U251 CNS.
The subject of assay [6] is SF-539 CNS.
Assay [7] relates to M19-MEL melanoma.
Assay [8] has as its system DMS 273 small cell lung.
The subject of assay [9] is NCI/ADR-RES ovarian.
The subject of assay [10] is KM20L2 colon.
Assay [11] concerns NCI-H522 lung.
Assay [12] deals with MCF7 breast.

SMILES strings stand for the structures.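 Grown in 96-well plates, cells were treated for 48 hours with each compound at five concentrations. Insufficient inhibition: endpoint recorded as highest concentration tested. GI50 is the concentration that inhibits growth by half. TGI denotes the concentration required for complete inhibition of growth.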

For `CNC(=O)OC1/C(C)=C\C(C)C(O)C(OC)CC(C)CC2=C(OC)C(=O)C=C(C2=O)N(C)C(=O)/C(C)=C/C=C\C1OC` (configuration not stated), the TGI was 17 µM in assay [1]; 22.7 µM in assay [2]; 14.1 µM in assay [3]; 46.5 µM in assay [4]; 31.4 µM in assay [5]; 23.3 µM in [6]. Besides, the TGI in assay [7] was 14.7 µM; in [8], 14.8 µM; in assay [9], 62 µM; in [10], 15.5 µM; in assay [11] it was 6.09 µM. The GI50 is 0.918 µM in assay [3] and less than 0.1 µM in assay [6].

In the case of `CCN(CC)C(=O)Cc1[nH][nH]c(=O)c1C(=O)N(CC)CC`, the TGI in [1], in assay [2], in assay [3], in assay [4], in assay [5] and in assay [6] was more than 100 µM each time. Also, the TGI in assay [7], in assay [8], in assay [10] and in assay [11] was more than 100 µM each time.

As to `CCOC(=O)CN(CC)C(=O)NC12CC3CC(CC(C3)C1)C2`, the TGI is 425 µM in assay [1]; 609 µM in assay [2]; 348 µM in assay [3]; more than 615 µM in [4]; more than 536 µM in assay [5]; 659 µM in assay [6]. For the same compound, the TGI in assay [7] is 472 µM; in assay [8] it was more than 705 µM; in assay [12], 461 µM; in assay [9], more than 680 µM; in [10], 471 µM; in assay [11] it was 493 µM.

As for `COC(OC)c1cccc2c1C(=O)CCC1(CC2)OCCCCO1`, the TGI in assay [1], in assay [2], in [3], in [4], in assay [5] and in assay [6] was more than 100 µM in each case. For the same compound, the TGI in [7], in assay [8], in [10] and in assay [11] was more than 100 µM throughout.

Regarding `O=C1N[C@@H]([C@H]2CC[C@H](Cl)CN2)C(=O)N[C@H]1[C@H]1CC[C@H](Cl)CN1`, the TGI in [1] stood at 32.1 µM; in [2], 139 µM; in assay [3], 0.426 µM; in [4], 5.36 µM; in [5], 12.3 µM; in assay [6] it was 4.27 µM. The TGI in assay [7] was found to be 23.5 µM; in assay [8], 7.35 µM; in [12] it was 7.25 µM; in [9] it was 10.4 µM; in [10], 63.9 µM; in assay [11], 4.06 µM.

Turning to `COc1ccc(N2C(=O)[C@@H]3[C@@H]4CC(C)CC[C@@H]4c4c([nH]c5ccccc45)[C@@H]3C2=O)cc1` (some centres not stated), the TGI was more than 100 µM in assay [1]; 14 µM in assay [2]; 89.4 µM in assay [3]; 45 µM in assay [4]; 28.8 µM in [5]; 25.9 µM in assay [6]. For the same compound, the TGI in [7] was more than 100 µM; in assay [8], 44.3 µM; in [10] it was more than 100 µM; in [11], more than 55 µM.

As to `CCCOC(=O)CCC(NC(=O)c1ccc(Nc2nc3ccccc3nc2-c2cccs2)cc1)C(=O)OCCC` (configuration not stated), the TGI in assay [2], in assay [4], in [5], in assay [6], in assay [7] and in [8] was more than 100 µM throughout. Moreover, the TGI in assay [10] and in assay [11] was more than 100 µM each time.

For the compound `CC(=O)OC1CCC2(C)C(CCC3C2CCC2(C)C(c4ccc(=O)oc4)C(OC(C)=O)CC32O)C1` (configuration not stated), the TGI was found to be 0.527 µM in [1]; 0.068 µM in assay [2]; 0.114 µM in assay [3]; 0.0456 µM in assay [4]; 0.137 µM in assay [5]; 0.015 µM in assay [6]. The TGI was 0.0194 µM in [8]; 0.229 µM in assay [12]; 0.0555 µM in [9]; 0.092 µM in assay [10]; 0.025 µM in assay [11].

For the compound `O=C1OCc2nc3c(c(-c4ccccc4C(F)(F)F)c21)C(=O)OC3`, the TGI in assay [2], in assay [3], in [4], in assay [5], in [6] and in assay [7] was more than 100 µM each time. Further, the TGI in [8], in [10] and in [11] was more than 100 µM each time.

For the compound `O=C1C=C2SC3C[C@@]24CC1(O)[N+]1=c2c4c(c(O)c4c2=C(C=N4)CC1)N3`, the TGI in [1] worked out at 1.01 µM; in assay [2], 3.9 µM; in assay [3], 0.534 µM; in assay [4], 2.95 µM; in assay [5], 3.14 µM; in assay [6] it was 2.85 µM. Besides, the TGI was 0.773 µM in [7]; 2.97 µM in assay [8]; 0.972 µM in assay [12]; 2.78 µM in [9]; 1.08 µM in [10]; 0.789 µM in assay [11].

The record behind these values is PubChem BioAssay (NCI).
